Structures can show the parent of a compound that is named as a salt. Where two headings read alike, the source gives them in different places.
Key:
[1] = target: T1, human, citrated, platelet-rich plasma (Homo sapiens, UniProt P05106+P08514); assay: Test (a): inhibition of ADP stimulated platelet aggregation (Born); type: cell-based; details: ADP induced aggregation of human platelet-rich plasma
T1 construct: aggregating human, citrated, platelet-rich plasma; endogenous in cells; host or cells: human platelets in citrated platelet-rich plasma
T1 sequence (P08514 32-887 limits assumed): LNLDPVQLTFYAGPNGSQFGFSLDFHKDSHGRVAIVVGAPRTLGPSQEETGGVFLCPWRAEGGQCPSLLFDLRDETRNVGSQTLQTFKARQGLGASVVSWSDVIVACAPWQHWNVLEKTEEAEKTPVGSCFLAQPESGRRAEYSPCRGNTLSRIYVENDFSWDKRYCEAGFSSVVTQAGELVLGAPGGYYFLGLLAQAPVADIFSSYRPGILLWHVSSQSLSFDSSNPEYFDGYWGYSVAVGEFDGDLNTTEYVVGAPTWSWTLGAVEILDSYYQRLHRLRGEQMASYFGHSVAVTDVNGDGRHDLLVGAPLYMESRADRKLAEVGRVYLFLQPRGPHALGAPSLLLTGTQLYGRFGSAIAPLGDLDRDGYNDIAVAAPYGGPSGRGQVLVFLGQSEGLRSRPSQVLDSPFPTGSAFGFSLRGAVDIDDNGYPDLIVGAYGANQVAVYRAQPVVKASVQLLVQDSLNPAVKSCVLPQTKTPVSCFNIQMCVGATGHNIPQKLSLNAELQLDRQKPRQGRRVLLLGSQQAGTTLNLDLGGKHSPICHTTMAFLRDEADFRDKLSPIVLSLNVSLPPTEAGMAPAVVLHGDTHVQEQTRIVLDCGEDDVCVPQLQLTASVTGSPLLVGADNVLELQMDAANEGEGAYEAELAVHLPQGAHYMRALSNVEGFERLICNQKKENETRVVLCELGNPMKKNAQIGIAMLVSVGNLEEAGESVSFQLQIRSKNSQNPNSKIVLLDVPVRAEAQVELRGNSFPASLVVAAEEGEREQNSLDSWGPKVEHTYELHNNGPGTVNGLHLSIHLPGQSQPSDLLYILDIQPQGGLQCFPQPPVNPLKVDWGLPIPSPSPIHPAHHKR
T1 sequence (P08514 891-1039 limits assumed): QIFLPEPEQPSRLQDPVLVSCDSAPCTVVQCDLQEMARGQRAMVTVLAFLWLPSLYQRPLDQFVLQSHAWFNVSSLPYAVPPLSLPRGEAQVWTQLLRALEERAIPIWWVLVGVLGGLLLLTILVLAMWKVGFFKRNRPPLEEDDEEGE
T1 sequence (P05106 27-788): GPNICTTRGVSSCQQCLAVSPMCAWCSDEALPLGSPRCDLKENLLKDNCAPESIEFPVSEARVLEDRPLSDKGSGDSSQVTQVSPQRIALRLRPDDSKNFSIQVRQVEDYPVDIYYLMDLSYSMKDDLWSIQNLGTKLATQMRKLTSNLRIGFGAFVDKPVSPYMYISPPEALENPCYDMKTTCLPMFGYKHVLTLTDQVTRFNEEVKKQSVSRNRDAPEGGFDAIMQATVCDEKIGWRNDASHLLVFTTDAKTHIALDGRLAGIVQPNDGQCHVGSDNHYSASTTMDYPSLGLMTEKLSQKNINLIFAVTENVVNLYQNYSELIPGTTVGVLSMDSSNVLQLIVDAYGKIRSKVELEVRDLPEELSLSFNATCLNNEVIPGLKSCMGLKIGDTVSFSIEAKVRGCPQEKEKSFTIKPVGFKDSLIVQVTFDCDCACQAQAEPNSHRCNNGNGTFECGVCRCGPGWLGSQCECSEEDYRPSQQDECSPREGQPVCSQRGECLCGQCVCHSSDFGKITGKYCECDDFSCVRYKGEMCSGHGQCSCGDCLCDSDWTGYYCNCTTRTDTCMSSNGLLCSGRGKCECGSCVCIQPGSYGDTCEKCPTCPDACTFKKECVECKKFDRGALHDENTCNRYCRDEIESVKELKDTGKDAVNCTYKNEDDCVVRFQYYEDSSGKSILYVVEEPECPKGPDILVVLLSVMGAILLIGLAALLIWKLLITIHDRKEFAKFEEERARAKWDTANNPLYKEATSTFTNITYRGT
How it was run: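 pA2 calculated by comparing ADP EC50-type (50% response) values in presence and absence of compound, averaged across concentrations (generally 10-^5 M to 10-^10 M). Aggregation (Born) induced by ADP in citrated human platelet-rich plasma, giving dose-response curves.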

[2] = tested on: Alderley Park Wistar rats; assay: Repeated oral dose study in the rat (liver effects, tolerability); type: in vivo; details: rat, oral, 500 mg/kg/day, seven days
Experimental: The following is a description of a study of the effects of the (-)-(3R) compound of Example 246 and the corresponding (3RS)-racemic mixture of Example 203 in the rat. Four groups of ten Alderley Park Wistar rats (each group comprising 5 male and 5 female rats) were dose orally with the (3RS)-racemic mixture of Example 203 at daily doses of 0, 25, 100 or 500 mg/kg. Dosing was continued for a total of seven days. The animals were killed and examined.
Four groups of ten Alderley Park Wistar rats (each group comprising 5 male and 5 female rats) were dosed orally with the (-)-(3R) compound of Example 246 at daily doses of 0, 50, 250 and 1000 mg/kg. The highest dose was not tolerated. After four or five days, four of the animals from this group were killed. The remaining six animals were dosed at 500 mg/kg/day for the remainder of the study. Dosing was continued for a total of fourteen days. The animals were killed and examined.

[3] = target: T2, purified human platelet fibrinogen receptor (GPIIb/IIIa) (Homo sapiens, UniProt P05106+P08514); assay: Test (b): GPIIb/IIIa ELISA, inhibition of biotinylated fibrinogen binding; details: purified human platelet GPIIb/IIIa, ELISA
T2 construct: is isolated from human platelet lysates; from tissue
T2 sequence (P08514 32-887 limits assumed): as the sequence (P08514 32-887 limits assumed) above
T2 sequence (P08514 891-1039 limits assumed): as the sequence (P08514 891-1039 limits assumed) above
T2 sequence (P05106 27-788): as the sequence (P05106 27-788) above
How it was run: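 Inhibition of biotinylated fibrinogen ([…]) binding to immobilised human platelet fibrinogen receptor, purified by KYGRGDS peptide affinity chromatography, was measured after 2 h at 30 °C. Readout: streptavidin–biotin-HRP colour with TMB at […]; value expressed as pIC50.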

[4] = tested on: aggregation of human blood platelets; assay: Test (a) modified to assess activity on oral administration (ex vivo); type: in vivo, dog; details: dogs, 5 mg/kg
Experimental: Test (a) may be modified so as to assess the effects of a test compound ex vivo on the aggregation of human blood platelets after administration of the test compound to a laboratory animal, such as a rat, rabbit, guinea pig, mouse or dog. For example, groups of four male, fasted Alderley Park Wistar rats are orally dosed with a test compound or appropriate vehicle, and at suitable time intervals (1,3,5 and 8 hours after dosing) animals are anaesthetised with fluothane and bled by heart puncture. Blood is collected into 3.2% citrate (1 part to 9 parts whole blood) and platelet poor plasma (ppp) prepared by centrifugation (4500×g for 10 min). […]
Equal volumes (125 μl) of rat ppp and human prp are mixed together, ADP added, and the whole incubated (37° C.) and stirred (900 rpm) in a BioData platelet aggregometer. Aggregation is induced with ADP and agonist EC50 values calculated for human prp/rat ppp mixtures from animals dosed with test compound or vehicle. A mean concentration ratio (concentration of ADP required to cause a 50% aggregation response in human prp/rat ppp mixtures from animals dosed with antagonist, divided by the concentration of ADP to cause 50% aggregation in human prp/rat ppp mixtures from animals dosed with vehicle) is calculated at each time point.

[5] = read-out: Test (a): pA2 value indicating potency of platelet aggregation inhibition (converted)
[6] = read-out: Test (b): pIC50 (-log(IC50)), 50% inhibition of biotinylated fibrinogen binding to GPIIb/IIIa (converted)

CC(COc1ccc(N2CCN(c3ccncc3)CC2)cc1)CC(=O)O (racemic) [Example 203, RS 3-Methyl-4-[4-[4-(4-pyridyl)piperazin-1-yl]phenoxy]butyric acid trifluoroacetate]
Test (a): pA2 value indicating potency of platelet aggregation inhibition [1]: 7.2
adverse effects in the liver [2]: Adverse effects were noted in the livers of six of the group of ten rats
Test (b): pIC50 (-log(IC50)), 50% inhibition of biotinylated fibrinogen binding to GPIIb/IIIa [3]: 8

COC(=O)COc1ccc(C(=O)CN2CCN(c3ccncc3)CC2)cc1 [Example 1, Methyl 4-[2-[4-(4-pyridyl)piperazin-1-yl]acetyl]phenoxyacetate]
duration of activity when dosed orally [4]: up to 12 hours
Kb [1, 5]: 158 to 316 nM
IC50 [3, 6]: 398 to 1580 nM

O=C(O)C1CCN(C(=O)CN2CCN(c3ccncc3)CC2)CC1 [Example 28, 1-[2-[4-(4-Pyridyl)piperazin-1-yl]acetyl]piperidin-4-carboxylic acid]
Kb [1, 5]: 20000 nM
IC50 [3, 6]: 2000 nM

O=C(O)COc1ccc(NC(=O)N2CCN(c3ccncc3)CC2)cc1 [Example 64, 4-[[4-(4-Pyridyl)piperazin-1-yl]carboxamido]phenoxyacetic acid]
Kb [1, 5]: 31.6 nM
IC50 [3, 6]: 20 nM

CC(C)(C(=O)c1ccc(OCC(=O)O)cc1)N1CCN(c2ccncc2)CC1 [Example 176, 4-[2-[4-(4-Pyridyl)piperazin-1-yl]-2,2-dimethylacetyl]phenoxyacetic acid]
Kb [1, 5]: 200 nM
IC50 [3, 6]: 10 nM

O=C(O)c1ccc(C(=O)CN2CCN(c3ccncc3)CC2)cc1 [Example 132, Sodium 4-[2-[4-(4-pyridyl)piperazin-1-yl]acetyl]benzoate]
Kb [1, 5]: 63100 nM
IC50 [3, 6]: 31600 nM

NC(=O)COc1ccc(C(=O)CN2CCN(c3ccncc3)CC2)cc1 [Example 142, 4-[2-[4-(4-Pyridyl)piperazin-1-yl]acetyl]phenoxyacetamide]
Kb [1, 5]: 5010 nM
IC50 [3, 6]: 5010 nM

CC(C)(C)OC(=O)COc1ccc(C(=O)CN2CCN(c3ccncc3)CC2)cc1 [Example 138, tert-Butyl 4-[2-[4-(4-pyridyl)piperazin-1-yl]acetyl]-phenoxyacetate]
Kb [1, 5]: 10000 nM
IC50 [3, 6]: 12600 nM

CCCCS(=O)(=O)N[C@@H](Cc1ccc(OCCCCC2CCN(c3ccncc3)CC2)cc1)C(=O)O [Example 84, 2-S-(n-Butylsulphonylamino)-3-[4-[4-[1-(4-pyridyl)piperidin-4-yl]butoxy]phenyl]propionic acid]
Kb [1, 5]: 63.1 nM
IC50 [3, 6]: 20 nM

COC(=O)COc1cc(OCC(=O)OC)cc(C(=O)CN2CCN(c3ccncc3)CC2)c1 [Example 133, Dimethyl 2,2'-[5-[2-[4-(4-pyridyl)piperazin-1-yl]acetyl]phenylene-1,3-dioxy]diacetate]
Kb [1, 5]: 2000 nM
IC50 [3, 6]: 31600 nM

Cc1ccc(S(=O)(=O)NCCC2CCN(C(=O)CN3CCN(c4ccncc4)CC3)CC2)cc1 [Example 223, N-[2-[1-[2-[4-(4-pyridyl)piperazin-1-yl]acetyl]piperidin-4-ylethyl]-4-methylphenylsulphonamide, dihydrochloride]
Kb [1, 5]: 1000 nM
IC50 [3, 6]: 1580 nM

COC(=O)CC(NC(=O)c1ccc(N2CCN(c3ccncc3)CC2)cc1)c1ccccc1 (stereo not drawn) [Example 58, Methyl 3-[4-[4-(4-pyridyl)piperazin-1-yl]benzamido]-3-phenylpropionate]
Kb [1, 5]: 3160 nM
IC50 [3, 6]: 39800 nM

COC(=O)COc1ccc(C(=O)CN2CCN(c3ccnc4ccccc34)CC2)cc1 [Example 43, Methyl 4-[2-[4-(4-quinolinyl)piperazin-1-yl]acetyl]phenoxyacetate]
Kb [1, 5]: 39800 nM
IC50 [3, 6]: 3160 nM

COCCNC(=O)CCCOc1ccc(N2CCN(c3ccncc3)CC2)cc1 [Example 201, N-2-Methoxyethyl-4-[4-[4-(4-pyridyl)piperazine-1-yl]phenoxy]butyramide, trifluoroacetate]
Kb [1, 5]: 50100 nM
IC50 [3, 6]: > 100000 nM

CN(C)c1ccncc1COc1ccc(OCCCC(=O)O)cc1 [Example 113, 4-[4-[(4-Dimethylaminopyrid-3-yl)methoxy]phenoxy]butanoic acid]
Kb [1, 5]: > 100000 nM
IC50 [3, 6]: 25100 nM

COC(=O)COc1ccc(OC2CCN(c3ccncc3)CC2)cc1 [Example 155, Methyl 4-[1-(4-pyridyl)piperidin-4-yl]oxyphenoxyacetate]
Kb [1, 5]: 3160 nM
IC50 [3, 6]: > 100000 nM

COc1cc(C(=O)CN2CCN(c3ccncc3)CC2)ccc1OCC(=O)O [Example 6, 4-[2-[4-(4-Pyridyl)piperazin-1-yl]acetyl]-2-methoxyphenoxyacetic acid]
Kb [1, 5]: 63.1 nM
IC50 [3, 6]: 25.1 nM

COC(=O)COc1ccc(C(=O)CN2CCN(c3ccnc4c3CCCC4)CC2)cc1 [Example 45, Methyl 4-[2-[4-(5,6,7,8-tetrahydro-4-quinolinyl)piperazin-1-yl]-acetyl]phenoxyacetate]
Kb [1, 5]: 3980 nM
IC50 [3, 6]: 794 nM

O=C(O)[C@H](Cc1ccc(OCCC2CCN(c3ccncc3)CC2)cc1)NS(=O)(=O)Cc1ccccc1 [Example 89, 2-S-(Benzylsulphonylamino)-3-[4-[2-[1-(4-pyridyl)piperidin-4-yl]ethoxy]phenyl]propionic acid]
Kb [1, 5]: 39.8 nM
IC50 [3, 6]: 2 nM

COC(=O)CC(NS(=O)(=O)c1ccc(C)cc1)c1ccc(OCC2CCN(c3ccncc3)CC2)cc1 (stereo not drawn) [Example 99, Methyl 3-(4-methylphenylsulphonylamino)-3-[4-[1-(4-pyridyl)piperidin-4-yl]methoxyphenyl]propionate]
Kb [1, 5]: 3980 nM
IC50 [3, 6]: 251 nM

COC(=O)CSc1ccc(C(=O)CN2CCN(c3ccncc3)CC2)cc1 [Example 9, Methyl 4-[2-[4-(4-pyridyl)piperazin-1-yl]acetyl]phenylthioacetate]
Kb [1, 5]: 12600 nM
IC50 [3, 6]: 50100 nM

CCCCS(=O)(=O)N[C@@H](Cc1ccc(OC2CCN(c3ccncc3)CC2)cc1)C(=O)OC [Example 37, Methyl 2-S-(n-butylsulphonylamino)-3-[4-[1-(4-pyridyl)piperidin-4-yl]oxyphenyl]propionate]
Kb [1, 5]: 2510 nM
IC50 [3, 6]: 200 nM

O=C(O)CC1CCN(C(=O)CN2CCN(c3ccncc3)CC2)CC1 [Example 30, 2-[1-[2-[4-(4-Pyridyl)piperazin-1-yl]acetyl]piperidin-4-yl]acetic acid]
Kb [1, 5]: 5010 nM
IC50 [3, 6]: 1260 nM

COC(=O)COc1ccc(C(=O)C(C)N2CCN(c3ccncc3)CC2)cc1OCC(=O)OC (stereo not drawn) [Example 78]
Kb [1, 5]: 158 nM
IC50 [3, 6]: 251 nM

O=C(O)C=Cc1ccc(CN2CCN(c3ccncc3)CC2)cc1 [Example 77, 4-[[4-(4-Pyridyl)piperazin-1-yl]methylene]cinnamic acid]
Kb [1, 5]: 7940 nM
IC50 [3, 6]: 501 nM

O=C(O)COc1ccc(C(=O)CN2CCN(c3ccncc3)CC2)cc1OCC(=O)O [Example 4, 2,2'-[4-[2-[4-(4-Pyridyl)piperazin-1-yl]acetyl]phenylene-1,2-dioxy]diaceticacid]
Kb [1, 5]: 1.26 nM
IC50 [3, 6]: 0.794 nM

O=C(O)CO[C@@H]1CCN(C(=O)CN2CCN(c3ccncc3)CC2)C[C@H]1OCC(=O)O (relative stereo) [Example 105]
Kb [1, 5]: 251 nM
IC50 [3, 6]: 251 nM

COC(=O)Cc1ccc(C(=O)CN2CCN(c3ccncc3)CC2)cc1 [Example 13, Methyl 4-[2-[4-(4-pyridyl)piperazin-1-yl]acetyl]phenylacetate]
Kb [1, 5]: 5010 nM
IC50 [3, 6]: 15800 to 39800 nM

CC(C(=O)c1ccc(OCC(=O)O)c(OCC(=O)O)c1)N1CCN(c2ccncc2)CC1 (stereo not drawn) [Example 79, 4-[2-[(4-Pyridyl)piperazin-1-yl]-2-methyl]acetyl-1,2-diphenoxydiacetic acid]
Kb ([1]; Test (a): pA2 value indicating potency of platelet aggregation inhibition): 12.6 nM
IC50 ([3]; Test (b): pIC50 (-log(IC50)), 50% inhibition of biotinylated fibrinogen binding to GPIIb/IIIa): 3.16 nM
